Reference: ChEMBL document CHEMBL3872220, “Amphiphilic xanthones as a potent chemical entity of anti-mycobacterial agents with membrane-targeting properties” (Eur J Med Chem, 2016)
≈ marks a conversion by molar mass, not a printed value.

Assays:
[1] = system: Mycolicibacterium smegmatis; test: Antimycobacterial activity against Mycobacterium smegmatis MC2 155 assessed as ATP leakage by measuring extracellular ATP at MIC measured immediatey after addition of compounds by luciferase reporter gene assay; assay type: functional, str. MC2 155
[2] = Drug metabolism in rat liver microsomes at 1 uM preincubated for 5 mins followed by NADPH addition measured up to 30 mins by LC-MS/MS method; assay type: ADME; details: read-out: Drug metabolism
[3] = system: Mycolicibacterium smegmatis; test: Antimycobacterial activity against Mycobacterium smegmatis MC2 155 assessed as ATP leakage by measuring intracellular ATP at 2 times MIC measured at 24 hrs post dose by luciferase reporter gene assay; assay type: functional, str. MC2 155
[4] = system: Mycolicibacterium smegmatis; test: Antimycobacterial activity against Mycobacterium smegmatis MC2 155 assessed as ATP leakage by measuring intracellular ATP at 2 times MIC measured at 9 hrs post dose by luciferase reporter gene assay; assay type: functional, str. MC2 155
[5] = system: Mycolicibacterium smegmatis; test: Antimycobacterial activity against Mycobacterium smegmatis MC2 155 assessed as ATP leakage by measuring extracellular ATP at 0.5 times MIC measured at 3 hrs post dose by luciferase reporter gene assay; assay type: functional, str. MC2 155
[6] = system: Mycolicibacterium smegmatis; test: Antimycobacterial activity against Mycobacterium smegmatis MC2 155 assessed as ATP leakage by measuring extracellular ATP at 2 times MIC measured at 9 hrs post dose by luciferase reporter gene assay; assay type: functional, str. MC2 155
[7] = system: Mycolicibacterium smegmatis; test: Antimycobacterial activity against Mycobacterium smegmatis MC2 155 assessed as ATP leakage by measuring extracellular ATP at 0.5 times MIC measured at 9 hrs post dose by luciferase reporter gene assay; assay type: functional, str. MC2 155
[8] = system: Mycolicibacterium smegmatis; test: Antimycobacterial activity against Mycobacterium smegmatis MC2 155 assessed as ATP leakage by measuring extracellular ATP at MIC measured at 1 hr of post dose by luciferase reporter gene assay; assay type: functional, str. MC2 155
[9] = system: Mycolicibacterium smegmatis; test: Antimycobacterial activity against Mycobacterium smegmatis MC2 155 assessed as ATP leakage by measuring extracellular ATP at 2 times MIC measured immediatey after addition of compounds by luciferase reporter gene assay; assay type: functional, str. MC2 155
[10] = system: Mycolicibacterium smegmatis; test: Antimycobacterial activity against Mycobacterium smegmatis MC2 155 assessed as ATP leakage by measuring extracellular ATP at MIC measured at 6 hrs post dose by luciferase reporter gene assay; assay type: functional, str. MC2 155
[11] = system: Mycolicibacterium smegmatis; test: Antimycobacterial activity against Mycobacterium smegmatis MC2 155 assessed as ATP leakage by measuring intracellular ATP at 0.5 times MIC measured at 6 hrs post dose by luciferase reporter gene assay; assay type: functional, str. MC2 155
[12] = system: Mycolicibacterium smegmatis; test: Antimycobacterial activity against Mycobacterium smegmatis MC2 155 assessed as ATP leakage by measuring extracellular ATP at 4 times MIC measured at 9 hrs post dose by luciferase reporter gene assay; assay type: functional, str. MC2 155
[13] = system: Mycobacterium tuberculosis; test: Antimycobacterial activity against Mycobacterium tuberculosis clinical isolate 01;001 assessed as reduction in 2 log10 bacterial colonies measured after 14 to 21 days by agar dilution method; assay type: functional
[14] = system: Mycolicibacterium smegmatis; test: Antimycobacterial activity against Mycobacterium smegmatis MC2 155 assessed as ATP leakage by measuring extracellular ATP at MIC measured at 9 hrs post dose by luciferase reporter gene assay; assay type: functional, str. MC2 155
[15] = system: Mycolicibacterium smegmatis; test: Antimycobacterial activity against Mycobacterium smegmatis MC2 155 assessed as ATP leakage by measuring intracellular ATP at 2 times MIC measured at 3 hrs post dose by luciferase reporter gene assay; assay type: functional, str. MC2 155
[16] = Cytotoxicity against human corneal fibroblasts assessed as increase in LDH level measured after 4 hrs by Cytotox-one […] assay; assay type: toxicity, Corneal fibroblast
CYP2C19 = CYP2C19 (Homo sapiens, UniProt P33261); test: Inhibition of CYP2C19 in human liver microsomes at 10 uM using omeprazole as substrate preincubated for 5 min followed by NADPH addition measured after 10 mins by LC-MS/MS method relative to control; assay type: ADME; details: probe omeprazole
CYP2C19, sequence (P33261 whole entry): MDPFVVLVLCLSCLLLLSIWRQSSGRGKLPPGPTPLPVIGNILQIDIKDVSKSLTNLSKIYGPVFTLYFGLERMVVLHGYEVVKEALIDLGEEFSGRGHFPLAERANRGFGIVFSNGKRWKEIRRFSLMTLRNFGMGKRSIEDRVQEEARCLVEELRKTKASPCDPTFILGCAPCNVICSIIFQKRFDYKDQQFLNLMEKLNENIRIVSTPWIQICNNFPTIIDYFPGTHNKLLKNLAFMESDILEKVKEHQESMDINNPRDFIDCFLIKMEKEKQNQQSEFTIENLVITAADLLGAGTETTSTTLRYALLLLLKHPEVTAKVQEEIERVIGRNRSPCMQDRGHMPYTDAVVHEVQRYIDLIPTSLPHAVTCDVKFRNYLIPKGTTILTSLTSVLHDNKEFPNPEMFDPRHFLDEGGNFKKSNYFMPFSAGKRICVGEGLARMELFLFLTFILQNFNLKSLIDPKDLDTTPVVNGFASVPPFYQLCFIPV

[17] = system: Mycolicibacterium smegmatis; test: Antimycobacterial activity against Mycobacterium smegmatis MC2 155 assessed as ATP leakage by measuring intracellular ATP at 0.5 times MIC measured at 9 hrs post dose by luciferase reporter gene assay; assay type: functional, str. MC2 155
[18] = system: Mycolicibacterium smegmatis; test: Antimycobacterial activity against Mycobacterium smegmatis MC2 155 assessed as ATP leakage by measuring intracellular ATP at MIC measured at 6 hrs post dose by luciferase reporter gene assay; assay type: functional, str. MC2 155
[19] = system: Mycolicibacterium smegmatis; test: Antimycobacterial activity against Mycobacterium smegmatis MC2 155 assessed as ATP leakage by measuring intracellular ATP at 4 times MIC measured at 24 hrs post dose by luciferase reporter gene assay; assay type: functional, str. MC2 155
[20] = system: Mycobacterium tuberculosis; test: Antimycobacterial activity against Mycobacterium tuberculosis clinical isolate 01;111 assessed as reduction in 2 log10 bacterial colonies measured after 14 to 21 days by agar dilution method; assay type: functional
[21] = system: Mycolicibacterium smegmatis; test: Antimycobacterial activity against Mycobacterium smegmatis MC2 155 assessed as ATP leakage by measuring extracellular ATP at 2 times MIC measured at 24 hrs post dose by luciferase reporter gene assay; assay type: functional, str. MC2 155
[22] = Cytotoxicity against human corneal fibroblasts assessed as reduction in ATP level measured after 4 hrs by Celltiter-Glo luminescent assay; assay type: toxicity, Corneal fibroblast
[23] = system: Mycolicibacterium smegmatis; test: Antimycobacterial activity against Mycobacterium smegmatis MC2 155 assessed as ATP leakage by measuring extracellular ATP at 2 times MIC measured at 1 hr of post dose by luciferase reporter gene assay; assay type: functional, str. MC2 155
[24] = system: Mycobacterium tuberculosis; test: Antimycobacterial activity against Mycobacterium tuberculosis clinical isolate 01;095 assessed as reduction in 2 log10 bacterial colonies measured after 14 to 21 days by agar dilution method; assay type: functional
[25] = system: Mycolicibacterium smegmatis; test: Antimycobacterial activity against Mycobacterium smegmatis MC2 155 assessed as inhibition of respiratory ATP synthesis by measuring ATP level at 2 times MIC measured after 1 hr by luciferase reporter gene assay (reference value: 90.6%); assay type: functional, str. MC2 155; set-up: scale not given: the % may be the effect or the level left
[26] = system: Mycolicibacterium smegmatis; test: Antimycobacterial activity against Mycobacterium smegmatis MC2 155 assessed as ATP leakage by measuring intracellular ATP at MIC measured at 3 hrs post dose by luciferase reporter gene assay; assay type: functional, str. MC2 155
[27] = system: Mycobacterium tuberculosis; test: Antimycobacterial activity against Mycobacterium tuberculosis clinical isolate 01;092 assessed as reduction in 2 log10 bacterial colonies measured after 14 to 21 days by agar dilution method; assay type: functional
[28] = system: Mycolicibacterium smegmatis; test: Antimycobacterial activity against Mycobacterium smegmatis MC2 155 assessed as ATP leakage by measuring intracellular ATP at 0.5 times MIC measured immediatey after addition of compounds by luciferase reporter gene assay; assay type: functional, str. MC2 155
[29] = system: Mycolicibacterium smegmatis; test: Antimycobacterial activity against Mycobacterium smegmatis MC2 155 assessed as inhibition of respiratory ATP synthesis by measuring ATP level at 4 times MIC measured after 3 hrs by luciferase reporter gene assay (reference value: 158.3%); assay type: functional, str. MC2 155; set-up: scale not given: the % may be the effect or the level left
[30] = Selectivity index, ratio of CC50 for human corneal fibroblasts assessed as reduction in ATP level to MIC90 for Mycobacterium bovis BCG ATCC 35734
[31] = system: Mycolicibacterium smegmatis; test: Antimycobacterial activity against Mycobacterium smegmatis MC2 155 assessed as ATP leakage by measuring intracellular ATP at MIC measured at 24 hrs post dose by luciferase reporter gene assay; assay type: functional, str. MC2 155
[32] = system: Mycolicibacterium smegmatis; test: Induction of impaired membrane integrity in Mycobacterium smegmatis MC2 155 assessed as reduction in membrane integrity at 0.5 times MIC by SYTO-9/propium iodide stain based Baclight assay relative to control; assay type: functional, str. MC2 155; set-up: scale not given: the % may be the effect or the level left
[33] = system: Mycolicibacterium smegmatis; test: Induction of membrane integrity impairment in Mycobacterium smegmatis MC2 155 at 4 times MIC measured after 24 hrs by SYTO-9/propium iodide staining based Baclight assay relative to control; assay type: functional, str. MC2 155
Lipid bilayer = test: Induction of membrane damage in CI/DOPG/DOPI large unilamellar vesicles assessed as calcein leakage at 1:2 compound to lipid ratio by fluorescence based […] assay relative to control

SMILES | Activity [1] [%] | metabolised at 0.5 h, 1 µM [2] [%] | Activity [3] [%] | Activity [4] [%] | Activity [5] [%] | Activity [6] [%] | Activity [7] [%] | Activity [8] [%] | Activity [9] [%] | Activity [10] [%] | Activity [11] [%] | Activity [12] [%] | Activity [14] [%] | Activity [15] [%] | CC50 at 4 h [16] [µM] | inhibition at 10 min, 10 µM (CYP2C19) [%] | Activity [17] [%] | Activity [18] [%] | Activity [19] [%] | Activity [21] [%] | further results
COc1c(OCCCCN2CCOCC2)cc2oc3cc(OCCCCN4CCOCC4)c(CC=C(C)C)c(O)c3c(=O)c2c1CC=C(C)C | 2.3 | 0 | 5.3 | 15.6 | 5.9 | 84.4 | 26.5 | 6.5 | 3 | 36.3 | 86.8 | 92.1 | 58.6 | 36.6 | > 150 | 17 | 73.5 | 63.7 | 4.5 | 94.7 | MIC [13]: 4 µg/mL (≈ 5.77 µM); MIC [20]: 4 µg/mL (≈ 5.77 µM); CC50 at 4 h [22]: > 150 µM; Activity [23]: 30.4%; MIC [24]: 4 µg/mL (≈ 5.77 µM); Activity [25]: 50.2%; Activity [26]: 55.3%; MIC [27]: 4 µg/mL (≈ 5.77 µM); Activity [28]: 100%; Activity [29]: 26.8%; Selectivity Index [30]: 15 - 40; Activity [31]: 11.3%
CCN(CC)CCCCOc1cc2oc3cc(OCCCCN(CC)CC)c(OC)c(CC=C(C)C)c3c(=O)c2c(O)c1CC=C(C)C | 0.8 | 12.1 | 13.3 | 3.4 | 16.4 | 96.6 | 23.2 | 42.1 | 1.3 | 79.9 | 87.8 | 97.3 | 82.4 | 2.7 | > 150 | 3 | 76.8 | 20.1 | 2.7 | 86.7 | Activity [32]: <15%; MIC [13]: 4 µg/mL (≈ 6.02 µM); MIC [20]: 4 µg/mL (≈ 6.02 µM); CC50 at 4 h [22]: 19.7 µM; Activity [23]: 95.6%; MIC [24]: 4 µg/mL (≈ 6.02 µM); Activity [33]: 62.5%; Activity [25]: 5.8%; Activity [26]: 12%; MIC [27]: 2 µg/mL (≈ 3.01 µM); Activity [28]: 100%; Activity [29]: 2.6%; Activity (Lipid bilayer): 47%; Activity [31]: 55.6%
CCCN(CCC)CCCCOc1cc2oc3cc(OCCCCN(CCC)CCC)c(OC)c(CC=C(C)C)c3c(=O)c2c(O)c1CC=C(C)C | 2.3 | 10 | 4.7 | 3.9 | 39 | 96.1 | 33.5 | 88.5 | 4 | 88 | 69.4 | 84.3 | 89.4 | 2.6 | > 150 | 19.2 | 66.5 | 12 | 12 | 95.3 | Activity [32]: <15%; CC50 at 4 h [22]: 108 µM; Activity [23]: 97.2%; Activity [33]: 76.9%; Activity [25]: 5.9%; Activity [26]: 8.2%; Activity [28]: 100%; Activity [29]: 4.6%; Activity (Lipid bilayer): 13.3%; Selectivity Index [30]: 15 - 40; Activity [31]: 11.9%
